Here are results for seven molecules from patent US9447039B2, “Indole carboxamide derivatives and uses thereof” (priority 2012, dated 2016).

SMILES strings stand for the structures. In brackets after ≈: the same amount, converted by molar mass.

The MIC50 is an inhibitory concentration at the 50% level, which refers to growth in some studies and to a panel of isolates in others.

The test has as its system Mycobacterium tuberculosis H37Rv (ATCC #27294). Description: Minimum Inhibitory Concentration (MIC50) determination. Type of test: cell-based. As to conditions: 120 h. The protocol: Mycobacterium tuberculosis H37Rv (ATCC #27294) (Mtb) strain was maintained in Middlebrook 7H9 broth medium supplemented with 0.05% Tween 80 and 10% ADS supplement. ADS supplement contains 5% bovine serum albumin fraction V. 2% D-dextrose and 0.8% of sodium chloride. Middlebrook 7H11 agar medium supplemented with 10% OADC (oleic acid, albumin, dextrose and catalase) was used as solid media for growing Mtb. Stock solutions of the compounds were prepared using 90% DMSO.
Minimum Inhibitory Concentration (MIC50) Determination
In Table 5 below, MIC50 is defined as the lowest concentration of the compound that inhibited 50% growth of the wild type strain compared to untreated controls. Test compounds were two or three fold serially diluted in duplicates and spotted by mosquito HTS to 384-well clear plates, resulting in 10 dilutions of each compound. A volume of 50 μl of Mtb culture (final OD600 of 0.02) was added to each well, and the assay plates were incubated at 37° C. for 5 days. Growth of bacteria was measured by reading absorbance at 600 nm using a Spectramax M2 spectrophotometer. MIC50 values were determined by using Activity Base software.

As for `Cc1cc(N2CCOCC2)cc2[nH]c(C(=O)N[C@@H]3CCCC[C@@H]3C)cc12` [Example 6B, 4-Methyl-N-((1R,2S)-2-methylcyclohexyl)-6-morpholino-1H-indole-2-carboxamide], the MIC50 turned out to be 14.2 µM (≈ 5.07 µg/mL).

The molecule `Cc1cc(N2CCCCC2)cc2[nH]c(C(=O)N[C@@H]3CCCC[C@@H]3C)cc12` [Example 6C, 4-Methyl-N-((1R,2S)-2-methylcyclohexyl)-6-(piperidin-1-yl)-1H-indole-2-carboxamide] returned an MIC50 of 5.12 µM (≈ 1.81 µg/mL).

`CCNc1cc(C)c2cc(C(=O)N[C@@H]3CCCC[C@@H]3C)[nH]c2c1` [Example 6D, 6-(Ethylamino)-4-methyl-N-((1R,2S)-2-methylcyclohexyl)-1H-indole-2-carboxamide] came in with an MIC50 of 4.86 µM (≈ 1.52 µg/mL). This MIC50 and that of the molecule before are within 1.5-fold of each other.

Molecule `Cc1cc(NC(C)C)cc2[nH]c(C(=O)N[C@@H]3CCCC[C@@H]3C)cc12` [Example 6E, 6-(Isopropylamino)-4-methyl-N-((1R,2S)-2-methylcyclohexyl)-1H-indole-2-carboxamide] came in with an MIC50 of 2.92 µM (≈ 0.958 µg/mL).

`O=C(NC1CCC(CF)CC1)c1cc2c(Cl)cc(Cl)cc2[nH]1` (stereo not shown) [Example 7A, 4,6-Dichloro-N-(4-(fluoromethyl)cyclohexyl)-1H-indole-2-carboxamide] returned an MIC50 of 0.14 µM (≈ 0.0481 µg/mL).

As to `COCC1CCC(NC(=O)c2cc3c(Cl)cc(Cl)cc3[nH]2)CC1` (stereo not shown) [Example 8A, 4,6-Dichloro-N-(4-(methoxymethyl)cyclohexyl)-1H-indole-2-carboxamide], the MIC50 came to 1.51 µM (≈ 0.536 µg/mL).

With `Cc1cc(OCCN2CCOCC2)cc2[nH]c(C(=O)NC3CCCCC3)cc12` [Example 9A, N-Cyclohexyl-4-methyl-6-(2-morpholinoethoxy)-1H-indole-2-carboxamide], the MIC50 was found to be 4.94 µM (≈ 1.9 µg/mL). This MIC50 lies about 3.3-fold higher than the previous one.
